Key:
[1] = tested on: JFH1-based recombinants of genotypes 1a, 1b, 2a, 2b, and 6a; assay type: cell-based, hepatitis C virus
[2] = tested on: J6/JFH; settings: previous studies; cited from earlier work
[3] = tested on: JFH1 cultures or cultures with genotype 1a (H77), 1b (Con1) or 2a (J6) JFH1-based recombinants; settings: previous studies; cited from earlier work

| Compound | decrease in supernatant HCV RNA titers [1] | decrease in the number of infected cells [1] | replication of J6/JFH (in words) [2] | effect of treatment on infected cells and supernatant HCV RNA titers (in words) [1] | production of infectious virus (in words) [3] |
| --- | --- | --- | --- | --- | --- |
| interferon-α2b | ~2 log | > 60% | decreased replication | – | – |
| NC12CC3CC(CC(C3)C1)C2 [amantadine] | – | – | – | no apparent effect | did not decrease production of infectious virus |
| NC(=O)c1ncn([C@@H]2O[C@H](CO)[C@@H](O)[C@H]2O)n1 [ribavirin] | – | – | – | no apparent effect | did not decrease production of infectious virus |
